{"source": "paper PMC6925622", "about": "(Clinical pharmacology and therapeutics, 2019)", "key": {"CYP3A5 and CYP3A4": {"system": "CYP3A5 and CYP3A4", "conditions": "preferentially inhibits CYP3A4; cited from earlier work"}, "CYP3A5 [1]": {"system": "CYP3A5", "conditions": "cited from earlier work"}, "CYP3A5 [2]": {"system": "CYP3A5", "conditions": "midazolam is the CYP3A probe, cited from earlier work"}, "CYP3A4/5": {"system": "CYP3A4/5", "assay": "Clinical midazolam-ketoconazole interaction study", "assay_type": "in vivo, human", "conditions": "for CLpo (oral clearance) / Cmax /Dose: oral midazolam"}, "CYP3A4": {"system": "CYP3A4", "conditions": "midazolam is the CYP3A probe, cited from earlier work"}, "[3]": {"assay": "Clinical study control phase: midazolam pharmacokinetics by CYP3A5 genotype", "assay_type": "in vivo, human", "conditions": "for Clearance Oral GM (90% CI): Observed, single dose of midazolam, blood clearance; for clearance: iv, 0.05 mg/kg, CLsys (systemic clearance), IV midazolam; for clearance / bioavailability / Tmax / half-life / CLpo (oral clearance) / Cmax /Dose: midazolam alone (control); for bioavailability: Fpo (oral bioavailability); for Tmax / CLpo (oral clearance) / Cmax /Dose: oral midazolam; for half-life: t1/2 (terminal half-life); for intestinal availability (FG): midazolam alone"}, "[4]": {"conditions": "cited from earlier work"}, "[5]": {"conditions": "human, serum, geometric mean, CYP3A5*1/*1 (n=6)"}, "[6]": {"conditions": "human, serum, geometric mean, CYP3A5*1/*3 and *1/*6 (n=9)"}, "[7]": {"conditions": "human, serum, geometric mean, CYP3A5*3/*3 non-expressers (n=8)"}, "[8]": {"conditions": "human, serum, geometric mean, CYP3A5 expressers (n=15)"}, "[9]": {"conditions": "human, serum, CYP3A5*3/*7 (n=1)"}, "[10]": {"conditions": "geometric mean, CYP3A5*1/*1 (n=6)"}, "[11]": {"conditions": "geometric mean, CYP3A5*1/*3 and *1/*6 (n=9)"}, "[12]": {"conditions": "geometric mean, CYP3A5 expressers (n=15)"}, "[13]": {"conditions": "after 200 mg KTZ, CYP3A5*3/*7 (n=1)"}, "[14]": {"conditions": "after 400 mg KTZ, CYP3A5*3/*7 (n=1)"}, "[15]": {"conditions": "geometric mean, after 200 mg KTZ, CYP3A5*3/*3 non-expressers"}, "[16]": {"conditions": "geometric mean, after 200 mg KTZ, CYP3A5 expressers"}, "[17]": {"conditions": "geometric mean, after 400 mg KTZ, CYP3A5*1/*1"}, "[18]": {"conditions": "geometric mean, after 400 mg KTZ, CYP3A5*1/*3 and *1/*6"}, "[19]": {"conditions": "geometric mean, after 400 mg KTZ, CYP3A5*3/*3 non-expressers"}, "[20]": {"conditions": "geometric mean, after 400 mg KTZ, CYP3A5 expressers"}}, "note": "Values joined by “and” are separate entries in the source; they are usually repeats but may differ in a detail not shown here. Equal entries are not always repeated.", "data": [{"molecule": "CCC(C)n1ncn(-c2ccc(N3CCN(c4ccc(OCC5COC(Cn6cncn6)(c6ccc(Cl)cc6Cl)O5)cc4)CC3)cc2)c1=O", "note": "(centres unmarked) [Itraconazole]", "values": [{"measurement": "Ki,3A5/Ki,3A4", "setting": "CYP3A5 and CYP3A4", "result": "≥ 7"}]}, {"molecule": "OC(Cn1cncn1)(Cn1cncn1)c1ccc(F)cc1F", "note": "[fluconazole]", "values": [{"measurement": "changes of midazolam metabolites formation across CYP3A5 genotypes", "setting": "CYP3A5 [1]", "result": "did not result in differential changes"}]}, {"molecule": "CC(=O)N1CCN(c2ccc(OCC3COC(Cn4ccnc4)(c4ccc(Cl)cc4Cl)O3)cc2)CC1", "note": "(centres unmarked) [ketoconazole]", "values": [{"measurement": "Ki towards CYP3A5", "setting": "CYP3A5 [2]", "result": "[…]"}, {"measurement": "Ki", "setting": "CYP3A5 [2]; read-out: Ki towards CYP3A5", "result": "[…]"}, {"measurement": "difference in the AUC0–10hr of ketoconazole between the 6th and 7th day of dosing", "setting": "CYP3A4/5; ketoconazole 200 mg or 400 mg", "result": "no significant difference"}, {"measurement": "inhibition of gut CYP3A", "setting": "CYP3A4/5; ketoconazole 200 and 400 mg doses", "result": "almost complete inhibition"}, {"measurement": "Ki towards CYP3A4", "setting": "CYP3A4", "result": "[…]"}, {"measurement": "Ki", "setting": "CYP3A4; read-out: Ki towards CYP3A4", "result": "[…]"}]}, {"molecule": "Cc1ncc2n1-c1ccc(Cl)cc1C(c1ccccc1F)=NC2", "note": "[midazolam]", "values": [{"measurement": "Clearance Oral GM (90% CI)", "setting": "[3]; CYP3A5 expressers", "result": "140 (114.5–171.3) L/hr"}, {"measurement": "Clearance Oral GM (90% CI)", "setting": "[3]; CYP3A5 non-expressers", "result": "105 (83.5–131.5) L/hr"}, {"measurement": "clearance", "setting": "[3]; [5]", "result": 540, "unit": "mL/min"}, {"measurement": "clearance", "setting": "[3]; [6]", "result": 550, "unit": "mL/min"}, {"measurement": "clearance", "setting": "[3]; [7]", "result": 402, "unit": "mL/min"}, {"measurement": "clearance", "setting": "[3]; [8]", "result": 547, "unit": "mL/min"}, {"measurement": "clearance", "setting": "[3]; [9]", "result": 318, "unit": "mL/min"}, {"measurement": "bioavailability", "setting": "[3]; human, serum, po, 4 mg, geometric mean, CYP3A5*1/*1 (n=6)", "result": 22, "unit": "%"}, {"measurement": "bioavailability", "setting": "[3]; human, serum, po, 4 mg, geometric mean, CYP3A5*1/*3 and *1/*6 (n=9)", "result": 23, "unit": "%"}, {"measurement": "bioavailability", "setting": "[3]; human, serum, po, 4 mg, geometric mean, CYP3A5*3/*3 non-expressers (n=8)", "result": 26, "unit": "%"}, {"measurement": "bioavailability", "setting": "[3]; human, serum, po, 4 mg, geometric mean, CYP3A5 expressers (n=15)", "result": 23, "unit": "%"}, {"measurement": "bioavailability", "setting": "[3]; human, serum, po, 4 mg, CYP3A5*3/*7 (n=1)", "result": 36, "unit": "%"}, {"measurement": "Tmax", "setting": "[3]; human, serum, po, 4 mg, Tmax, CYP3A5*3/*7 (n=1)", "result": 1, "unit": "h"}, {"measurement": "half-life", "setting": "[3]; [5]", "result": 2.76, "unit": "h"}, {"measurement": "half-life", "setting": "[3]; [6]", "result": 2.75, "unit": "h"}, {"measurement": "half-life", "setting": "[3]; [7]", "result": 3.05, "unit": "h"}, {"measurement": "half-life", "setting": "[3]; [8]", "result": 2.75, "unit": "h"}, {"measurement": "half-life", "setting": "[3]; [9]", "result": 5.25, "unit": "h"}, {"measurement": "intestinal availability (FG)", "setting": "[3]; CYP3A5 expressers", "result": "0.35±0.09"}, {"measurement": "intestinal availability (FG)", "setting": "[3]; CYP3A5 non-expressers", "result": "0.33±0.06"}, {"measurement": "CLpo (oral clearance)", "setting": "[3]; [10]", "result": 144, "unit": "L/h"}, {"measurement": "Cmax /Dose", "setting": "[3]; [10]", "result": 1.5, "unit": "ng/mL"}, {"measurement": "CLpo (oral clearance)", "setting": "[3]; [11]", "result": 137, "unit": "L/h"}, {"measurement": "Cmax /Dose", "setting": "[3]; [11]", "result": 1.6, "unit": "ng/mL"}, {"measurement": "CLpo (oral clearance)", "setting": "[3]; [12]", "result": "140 ± 66 L/h and 140 L/h"}, {"measurement": "Cmax /Dose", "setting": "[3]; [12]", "result": "1.6 ± 0.6 ng/mL and 1.6 ng/mL"}, {"measurement": "CLpo (oral clearance)", "setting": "[3]; CYP3A5*3/*7 (n=1)", "result": 55.7, "unit": "L/h"}, {"measurement": "Cmax /Dose", "setting": "[3]; CYP3A5*3/*7 (n=1)", "result": 3.4, "unit": "ng/mL"}, {"measurement": "Tmax", "setting": "[3]; CYP3A5 expressers (n=15)", "result": 0.7, "unit": "h"}, {"measurement": "inter-individual variability for the CLsys", "setting": "[3]; this study", "result": 2.3, "unit": "fold"}, {"measurement": "inter-individual variability of CLpo", "setting": "[3]; this study", "result": 7.0, "unit": "fold"}, {"measurement": "CLpo (oral clearance)", "setting": "CYP3A4/5; [13]", "result": 4.6, "unit": "L/h"}, {"measurement": "Cmax /Dose", "setting": "CYP3A4/5; [13]", "result": 18.1, "unit": "ng/mL"}, {"measurement": "CLpo (oral clearance)", "setting": "CYP3A4/5; [14]", "result": 2.7, "unit": "L/h"}, {"measurement": "Cmax /Dose", "setting": "CYP3A4/5; [14]", "result": 21.2, "unit": "ng/mL"}, {"measurement": "Cmax /Dose", "setting": "CYP3A4/5; geometric mean, after 200 mg KTZ, CYP3A5*1/*1", "result": 9.6, "unit": "ng/mL"}, {"measurement": "Cmax /Dose", "setting": "CYP3A4/5; geometric mean, after 200 mg KTZ, CYP3A5*1/*3 and *1/*6", "result": 7.9, "unit": "ng/mL"}, {"measurement": "CLpo (oral clearance)", "setting": "CYP3A4/5; [15]", "result": "7.0 ± 2.0 L/h and 7.0 L/h"}, {"measurement": "Cmax /Dose", "setting": "CYP3A4/5; [15]", "result": 12.3, "unit": "ng/mL"}, {"measurement": "CLpo (oral clearance)", "setting": "CYP3A4/5; [16]", "result": "13.3 ± 5.6", "unit": "L/h"}, {"measurement": "Cmax /Dose", "setting": "CYP3A4/5; [16]", "result": 8.5, "unit": "ng/mL"}, {"measurement": "CLpo (oral clearance)", "setting": "CYP3A4/5; [17]", "result": 8.2, "unit": "L/h"}, {"measurement": "Cmax /Dose", "setting": "CYP3A4/5; [17]", "result": 9.4, "unit": "ng/mL"}, {"measurement": "CLpo (oral clearance)", "setting": "CYP3A4/5; [18]", "result": 8.6, "unit": "L/h"}, {"measurement": "Cmax /Dose", "setting": "CYP3A4/5; [18]", "result": 8.9, "unit": "ng/mL"}, {"measurement": "CLpo (oral clearance)", "setting": "CYP3A4/5; [19]", "result": "4.9 ± 1.3 L/h and 4.9 L/h"}, {"measurement": "Cmax /Dose", "setting": "CYP3A4/5; [19]", "result": 15.8, "unit": "ng/mL"}, {"measurement": "CLpo (oral clearance)", "setting": "CYP3A4/5; [20]", "result": "8.4 ± 3.5 L/h and 8.4 L/h"}, {"measurement": "Cmax /Dose", "setting": "CYP3A4/5; [20]", "result": 9.1, "unit": "ng/mL"}, {"measurement": "midazolam FG in SimCYP", "setting": "[4]; derived using plasma clearance and hepatic plasma flow", "result": 0.57}, {"measurement": "inter-individual variability of midazolam clearance in other studies", "setting": "[4]; other studies", "result": "3.3- to 5.2 fold"}]}]}
